Data reported in US20120028897A1, “METHODS AND COMPOSITIONS FOR THE TREATMENT OF FLUID RETENTION DISORDERS” (priority 2008, published 2012).
Like-named read-outs stand apart in the source and are kept apart here. Bridges are numbered along the chain shown (N, C = ends). Where no end group is shown, it is not given here.

Legend:
[1] = 37° C., cited from earlier work
[2] = biological target: guanylate cyclase C (GC-C) receptor (UniProt P25092 24-1073, limits assumed); assay: cell-based or functional assay
Sequence of guanylate cyclase C (GC-C) receptor (P25092 24-1073 limits assumed): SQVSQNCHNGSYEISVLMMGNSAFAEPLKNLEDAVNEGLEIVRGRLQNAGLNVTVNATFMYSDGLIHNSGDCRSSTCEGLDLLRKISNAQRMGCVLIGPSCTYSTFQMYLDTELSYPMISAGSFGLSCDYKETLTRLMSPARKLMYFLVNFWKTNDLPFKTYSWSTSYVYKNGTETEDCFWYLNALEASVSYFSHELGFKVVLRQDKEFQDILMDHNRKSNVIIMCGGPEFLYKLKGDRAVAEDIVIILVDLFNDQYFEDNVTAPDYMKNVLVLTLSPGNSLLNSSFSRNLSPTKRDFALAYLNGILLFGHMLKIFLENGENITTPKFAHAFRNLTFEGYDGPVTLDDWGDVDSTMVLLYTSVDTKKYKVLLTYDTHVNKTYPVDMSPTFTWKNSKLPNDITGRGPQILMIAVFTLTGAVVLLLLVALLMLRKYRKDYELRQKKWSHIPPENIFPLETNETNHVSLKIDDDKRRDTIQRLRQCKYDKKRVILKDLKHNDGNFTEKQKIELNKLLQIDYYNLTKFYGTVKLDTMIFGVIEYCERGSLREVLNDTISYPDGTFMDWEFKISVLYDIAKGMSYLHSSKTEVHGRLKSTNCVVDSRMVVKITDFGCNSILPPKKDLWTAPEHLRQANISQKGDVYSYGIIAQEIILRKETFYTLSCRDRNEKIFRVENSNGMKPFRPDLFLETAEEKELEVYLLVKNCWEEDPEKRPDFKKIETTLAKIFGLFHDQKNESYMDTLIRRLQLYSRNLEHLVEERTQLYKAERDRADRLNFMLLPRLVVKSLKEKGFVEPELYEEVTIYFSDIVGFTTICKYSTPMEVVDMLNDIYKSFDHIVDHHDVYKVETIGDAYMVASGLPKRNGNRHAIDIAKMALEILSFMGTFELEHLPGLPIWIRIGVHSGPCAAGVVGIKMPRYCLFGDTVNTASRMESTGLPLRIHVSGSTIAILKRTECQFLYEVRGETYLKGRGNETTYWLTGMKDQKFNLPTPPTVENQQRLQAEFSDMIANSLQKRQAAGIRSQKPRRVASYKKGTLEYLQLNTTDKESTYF

Row | cyclic GMP synthesis in T84 cells, potency against huUgnA [2] | Molecule | half life of each stereoisomer (A/B interconversion) [1] | half life of each stereoisomer (A/B interconversion) ([1]; listed as human Ugn)
1 | – | CC(C)C[C@H](NC(=O)[C@@H]1CSSC[C@@H]2NC(=O)[C@H](CC(C)C)NC(=O)[C@H](CCC(=O)O)NC(=O)[C@@H](NC(=O)[C@H](CC(=O)O)NC(=O)[C@H](CC(=O)O)NC(=O)[C@@H](N)CC(N)=O)CSSC[C@H](NC(=O)[C@H](C)NC(=O)[C@H](C(C)C)NC(=O)[C@H](CC(N)=O)NC(=O)[C@H](C(C)C)NC2=O)C(=O)N[C@@H]([C@@H](C)O)C(=O)NCC(=O)N1)C(=O)O [huUgn, Asn Asp Asp Cys Glu Leu Cys Val Asn Val Ala Cys Thr Gly Cys Leu] | approximately 2 days | about 2 days
2 | > 100 fold less potent than huUgnA | NDDCELCVNVACTGCL (disulfide 4-12, 7-15) [Human UgnB (B isoform of human uroguanylin)] | – | –
